≈ marks a conversion by molar mass, not a printed value. Like-named read-outs stand apart in the source and are kept apart here.
Tests used:
[1] = LogD measurement (octanol-water); type: physicochemical
Procedure: LogD Measurement: Measurement of octanol-water distribution coefficient of samples using a […]
stock solutions for plating. Aqueous Phase: 100mM Buffer, pH=7.4 (0.1M Potassium phosphate buffer, diluted from Sigma 1M P3619-1GA to 0.1 M with MilliQ water), pH=2.2 (0.1M- NaCl pH adjusted with 0.1N HCL), pH=6.8 (0.1M - KH2PO4/K2HPO4), pH=5 (4 .04g of NaOH (Pellets), 8.65g of Glacial Acetic Acid, 11.874g of NaCl. In in 1 liter water. Adjusted to pH to 5 with either 1N NaOH or 1N HCl); Organic Phase: 1-Octanol (O021). Sample Concentration:
1000uM, […] 10 mM DMSO stock solution diluted in […] of organic Phase and […] of aqueous Phase. DMSO content: 10%. The controls were plated from the standard 10 mM DMSO stock and run on the standard concentration ([…]) range of the assay. Incubation time:
Sonication for 30 minutes followed by 24 hours shaking at 750 rpm in 96 deep well plate (VWR

[2] = Kinetic solubility measurement; type: physicochemical; conditions: 10 mM DMSO stock solutions
Procedure: Kinetic Solubility Measurement: The standard kinetic solubility assay runs on […] concentration range using 10 mM DMSO stock solutions for plating. Single point calibration assay runs in duplicates. Concentration of standards: […] DMSO solutions prepared by diluting 10 mM stock, solution with DMSO. Concentration of samples: 200 µM, 4 µl 10 mM DMSO stock solution diluted with the appropriate buffer to […]. DMSO content:
2%. Buffers: pH=7.4 (0.1M Potassium phosphate buffer, diluted from Sigma 1M P3619-1GA to 0.1 M with MilliQ water), pH=2.2 (0.1M- NaCl pH adjusted with 0.1N HCL), pH=6.8 (0.1M - KH2PO4/K2HPO4), pH=5 (4 .04g of NaOH (Pellets), 8.65g of Glacial Acetic Acid, 11.874g of NaCl. In in 1 liter water. Adjusted to pH to 5 with either 1N NaOH or 1N HCl). The controls were plated from the standard 10 mM DMSO stock and run on the standard concentration (200µM) range of the assay. Incubation time: 24 hours shaking at […] in Millipore Multiscreen HTS filter plate for Aqueous Solubility Assay (MSSLBPC50), on room temperature.
After incubation time filtration with positive pressure manifold was performed. […]

[3] = test system: O. gutturosa adult male worms; assay: O. gutturosa adult worm ex vivo assay, MTT/formazan viability; type: cell-based, Onchocerca gutturosa; conditions: supplement, SD in brackets in the PDF table, read-out: O. gutturosa EC50 (uM) MTT viability inhibition
Procedure: (§1) Activity against O. gutturosa adult male worms was determined using reported procedures.[7] The EC50 values were calculated using Microsoft Office Excel (2010) data analysis software. The tested compound is considered active when a motility reduction of ≥50% is observed by comparison to the untreated controls. O. gutturosa adult male worms were obtained postmortem from freshly slaughtered cattle. The worms were dissected from the nuchal ligament connective tissues of naturally infected cattle in Gambia, West Africa; the material was purchased from the International Trypanotolerance Centre, Banjul, from local butchers for use in this study. The adult worms were transferred individually to each well of a sterile 24-well (2 mL) plate (Thermo Fisher Scientific, UK) and maintained for at least 24 h in culture before use. The medium used was a minimum essential medium (MEM) with Earl’s salts and L-glutamine (Life Technologies Ltd., UK) supplemented with 10% heat inactivated newborn calf serum (Life Technologies Ltd., UK), 200 units/mL penicillin, 200 μg/mL streptomycin, and 0.5 μg/mL amphotericin B (Life Technologies Ltd., UK). Only normally active worms were used for the test, and all assays were conducted at 37 °C and 5% CO2. The positive control drug used was Immiticide (melarsomine dihydrochloride, Merial, USA). Known amounts of compounds were solubilized in 1 mL of DMSO. All stock solutions were allowed to stand at room temperature prior to use. The test items (four worms/drug concentration) were compared to untreated controls (six worms) and the positive control (two worms/drug concentration). Drug efficacy was assessed by the measurement of mean worm motility scores on a scale of 0 (immotile) to 10 (maximum) every 24 h, terminating at 120 h, using an Olympus inverted microscope. The results are reported as a percentage of the maximum score obtainable (100%) by calculating the motility index scores. The test drug is considered active when a motility reduction of ≥50% is observed by comparison to the untreated controls. […] In addition, biochemical evaluation of worm viability was assessed using MTT/formazan colorimetry. The MTT assay was carried out after the last motility reading (120 h). Single intact worms were placed in each well of a 48-well plate (Thermo Fisher Scientific, UK) containing 0.5 mL of 0.5 mg/mL MTT (Sigma, UK) in PBS solution and then incubated for 30 min at 37 °C. The worms were removed, blotted carefully, and individually transferred to separate wells of a 96-well microtiter plate, each containing 200 μL of DMSO to solubilize the formazan. After 1 h, the plate was gently agitated to disperse the color evenly and the absorbance value (optical density, OD) of the resulting formazan solution was determined at 490 nm using an absorbance microplate reader (Biotek ELx800, Thermo Fisher Scientific, UK). The results are expressed as the mean OD per drug concentration. Inhibition of formazan formation is correlated with worm damage or death.

[4] = test system: O. gutturosa adult male worms; assay: O. gutturosa adult worm ex vivo assay, motility; type: cell-based, Onchocerca gutturosa
Procedure: as §1
Data S1. Onchocerca gutturosa adult male worms EC 50 Curves
Plotted using Graph Pad Prism 7.03, least square original fit, sigmoidal, 4PL
The measurement of mean worm motility every 24 h, terminating at 120 h, serial 1 in 4 drug dilutions to find
activity endpoint and produce EC50 values (geomean, n=2) for motility reduction. (4 worms per drug […]

[5] = Liver S9 metabolic stability assay, rat; type: in vitro ADME; conditions: 3 μM, 60 min
Procedure: (§2) Liver S9 Metabolic Stability Assay: Incubations were performed at 37 °C in a Dubnoff Shaking water bath using 2 mL 96-well incubation plates. Rat and human S9 protein concentrations were 0.75 mg/ml and 1.2 mg/ml, respectively. The final concentrations of NADPH, UDPGA, and GSH were 1, 0.5, and 2.5 mM, and the final concentration of PAPS was 0.05 mg/ml. Substrate concentrations were 3µM, incubation time was 60 minutes, and all tests were done in triplicate. The incubation was conducted in 200 mM Tris buffer containing 2 mM magnesium chloride, pH=7.4 and the total incubation volume was 0.5 ml. Samples were analysed via LC-MS/MS and reported as percentage remaining after incubation for 60 minutes. […]

[6] = Liver S9 metabolic stability assay, human; type: in vitro ADME; conditions: 3 μM, 60 min
Procedure: as §2

[7] = supplement, read-out: measured logD
[8] = Onchocerca gutturosa, read-out: O. gutturosa EC50 μM (SD), ex vivo adult worm motility reduction, SD in brackets
[9] = Onchocerca gutturosa, read-out: O. gutturosa EC50 (uM) motility inhibition, supplement, SD in brackets in the PDF table

| Compound | logD at 24 h ([1]; pH 7.4, read-out: logD) | logD at 24 h [1, 7] | solubility kinetic at 24 h [2] | EC50 ([3]; Onchocerca gutturosa) | EC50 [3] | EC50 [4, 8] | EC50 [4, 9] | EC50 ([4]; read-out: O. gutturosa EC50 (uM) motility inhibition, supplement, SD in brackets in the PDF table) | Rat S9 metabolic stability [5] | Human S9 metabolic stability [6] | logD ([1]; pH 7.4) | measured logD ([1]; supplement) | EC50 ([4]; adult worm motility, bound stated, read-out: O. gutturosa EC50) | EC50 ([4]; supplement, SD in brackets in the PDF table, read-out: O. gutturosa EC50 (uM) motility inhibition) |
| --- | --- | --- | --- | --- | --- | --- | --- | --- | --- | --- | --- | --- | --- | --- |
| Cc1cccnc1N(C)c1nc(-c2ccc(OC(C)C)cn2)ns1 [Compound 42, 3-(5-Isopropoxypyridin-2-yl)-N-methyl-N-(3-methylpyridin-2-yl)-1,2,4-thiadiazol-5-amine] | 2.35 | 2.35 | 33.5 µM (≈ 11.4 µg/mL) | 0.36 µM | 0.357 µM | 0.2 µM | 0.21 µM | 0.212 µM | 81 % remaining | 96 % remaining |  |  |  |  |
| c1ccc(Nc2nc(-c3ccccn3)ns2)nc1 [Compound 9, N,3-Di(pyridin-2-yl)-1,2,4-thiadiazol-5-amine] | 1.8 | 1.8 | 8.2 µM (≈ 2.09 µg/mL) | 1.1 µM |  | 0.16 µM | 0.155 µM |  | 83 % remaining | 83 % remaining |  |  |  |  |
| COc1cccnc1Nc1nc(-c2cc(C)ccn2)ns1 [Compound 29, N-(3-Methoxy-2-pyridyl)-3-(4-methyl-2-pyridyl)-1,2,4-thiadiazol-5-amine] | 2.1 | 2.1 | 26.5 µM (≈ 7.93 µg/mL) | 0.88 µM |  | 0.12 µM | 0.121 µM |  | 70 % remaining | 72 % remaining |  |  |  |  |
| Cc1nccnc1Nc1nc(-c2ccc(OC(C)C)cn2)ns1 [Compound 41, 3-(5-Isopropoxy-2-pyridyl)-N-(3-methylpyrazin-2-yl)-1,2,4-thiadiazol-5-amine] | 2.7 | 2.7 | 24.5 µM (≈ 8.04 µg/mL) | < 0.19 µM |  | 0.06 µM | 0.058 µM |  | 100 % remaining | 94 % remaining |  |  |  |  |
| CN1CCC(Oc2ccc(Nc3nc(-c4ccccn4)ns3)nc2)CC1 [Compound 36, N-(5-((1-Methylpiperidin-4-yl)oxy)pyridin-2-yl)-3-(pyridin-2-yl)-1,2,4-thiadiazol-5-amine] | 1.7 | 1.7 | 193 µM (≈ 71.3 µg/mL) |  |  | 1.12 µM |  |  | 99 % remaining | 88 % remaining |  |  |  |  |
| Cc1cccnc1Nc1nc(-c2cc(C3CCN(C)CC3)ccn2)ns1 [Compound 22] | 2 | 2 | 184 µM (≈ 67.5 µg/mL) | 13.1 µM |  | 0.2 µM | 0.198 µM |  | 81 % remaining | 78 % remaining |  |  |  |  |
| Cc1cccnc1Nc1nc(-c2cnc(OC(C)C)cn2)ns1 [Compound 39, 3-(5-Isopropoxypyrazin-2-yl)-N-(3-methyl-2-pyridyl)-1,2,4-thiadiazol-5-amine] | 3.1 | 3.1 | 2.1 µM (≈ 0.69 µg/mL) | 1.1 µM |  | 0.29 µM | 0.286 µM |  | 74 % remaining | 81 % remaining |  |  |  |  |
| Cc1cccnc1Nc1nc(-c2ccc(C#N)cn2)ns1 [Compound 13, 6-(5-((3-Methylpyridin-2-yl)amino)-1,2,4-thiadiazol-3-yl)nicotinonitrile] | 2.75 | 2.75 | 0.55 µM (≈ 0.162 µg/mL) | 20 µM |  | 5.8 µM |  |  | 73 % remaining | 66 % remaining |  |  |  |  |
| 3-(3-Methyl-2-pyridyl)-N-(5-pyrrolidin-1-yl-2-pyridyl)-1,2,4-thiadiazol-5-amine [Compound 21] |  |  | 2.17 µM |  | 0.14 µM |  |  |  | 61 % remaining | 86 % remaining | 2.65 | 2.65 | < 0.1 µM | 0.044 µM |
| Cc1cccnc1Nc1nc(-c2cc(C(=O)N(C)C)ccn2)ns1 [Compound 16] | 1.9 | 1.9 | 26.5 µM (≈ 9.02 µg/mL) | 1.1 µM |  | 3.28 µM |  |  | 78 % remaining | 89 % remaining |  |  |  |  |
| CC(=O)N(C)c1cc(C(F)(F)F)cnc1Nc1nc(-c2ccccn2)ns1 [Compound 53] | 2.2 | 2.2 | 4.05 µM (≈ 1.6 µg/mL) | 0.15 µM |  | 0.05 µM | 0.047 µM |  |  |  |  |  |  |  |
| CNC(=O)c1cccnc1Nc1nc(-c2ccc(OC(C)C)cn2)ns1 [Compound 60, 2-((3-(5-Isopropoxypyridin-2-yl)-1,2,4-thiadiazol-5-yl)amino)-N-methylnicotinamide] | 1.8 | 1.8 | 10.2 µM (≈ 3.76 µg/mL) | 2.4 µM |  | 0.67 µM |  |  |  |  |  |  |  |  |
| CC(C)Oc1ccc(-c2nsc(Nc3ncc(C(F)(F)F)cc3C(=O)N(C)C)n2)nc1 [Compound 57] | 3.2 | 3.2 | 3.27 µM (≈ 1.48 µg/mL) | 1.3 µM |  | 0.58 µM | 0.578 µM |  |  |  |  |  |  |  |

— PMC9421654, “Discovery of Substituted Di(pyridin-2-yl)-1,2,4-thiadiazol-5-amines as Novel Macrofilaricidal Compounds for the Treatment of Human Filarial Infections” (Journal of Medicinal Chemistry, 2022)
